Assay results taken from the supplement of paper PMC12463676, “Small-molecule dissolution of stress granules by redox modulation benefits ALS models” (Nature Chemical Biology, 2025).

How the values were obtained:
potassium arsenate = compound: O=[As]([O-])(O)O.[K+] [potassium arsenate]; assay: thermal stability z-score vs DMSO; higher = more thermally stabilized by treatment; conditions: HeLa; arsenate concentration 1 mM
Description: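 Cellular thermal proteome profiling in HeLa cells treated with 1 mM arsenate for 1 h (DMSO pretreatment), heated to ten temperatures (37-66.3 °C). Soluble protein was quantified by TMT mass spectrometry relative to DMSO controls; the thermal stability score was transformed to a z-score; mean of n = 3 experiments.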

lipoamide = compound: NC(=O)CCCCC1CCSS1 [lipoamide]; assay: as above; conditions: HeLa, lipoamide concentration 100 µM
Description: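 Cellular thermal proteome profiling in HeLa cells. Cells were treated with 100 µM lipoamide for 1 h, with or without 1 mM arsenate for a further 1 h, then heated to ten temperatures (37-66.3 °C), and soluble protein was quantified by TMT mass spectrometry relative to 0.1% DMSO controls. The thermal stability score (sum of log2 fold changes minus the abundance score) was transformed to a z-score; mean of n = 3 experiments.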

[1] = arsenate co-treatment: 1 mM arsenate 1 h
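Note: each temperature applied for 3 min, abundance score taken as mean log2 fold change at the two lowest temperatures, z-score obtained by mean subtraction and division by SD.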

Sequence of UniProt Q9H9B4 (Q9H9B4 whole entry): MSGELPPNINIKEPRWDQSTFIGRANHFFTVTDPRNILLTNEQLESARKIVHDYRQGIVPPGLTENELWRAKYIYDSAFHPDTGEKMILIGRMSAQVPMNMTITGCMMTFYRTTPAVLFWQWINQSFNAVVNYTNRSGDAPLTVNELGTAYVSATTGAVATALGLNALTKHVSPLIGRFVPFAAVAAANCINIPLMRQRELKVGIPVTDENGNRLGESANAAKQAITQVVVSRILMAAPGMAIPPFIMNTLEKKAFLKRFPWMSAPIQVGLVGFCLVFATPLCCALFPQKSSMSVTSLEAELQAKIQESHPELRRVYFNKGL
Sequence of UniProt Q9NUJ3 (Q9NUJ3 whole entry): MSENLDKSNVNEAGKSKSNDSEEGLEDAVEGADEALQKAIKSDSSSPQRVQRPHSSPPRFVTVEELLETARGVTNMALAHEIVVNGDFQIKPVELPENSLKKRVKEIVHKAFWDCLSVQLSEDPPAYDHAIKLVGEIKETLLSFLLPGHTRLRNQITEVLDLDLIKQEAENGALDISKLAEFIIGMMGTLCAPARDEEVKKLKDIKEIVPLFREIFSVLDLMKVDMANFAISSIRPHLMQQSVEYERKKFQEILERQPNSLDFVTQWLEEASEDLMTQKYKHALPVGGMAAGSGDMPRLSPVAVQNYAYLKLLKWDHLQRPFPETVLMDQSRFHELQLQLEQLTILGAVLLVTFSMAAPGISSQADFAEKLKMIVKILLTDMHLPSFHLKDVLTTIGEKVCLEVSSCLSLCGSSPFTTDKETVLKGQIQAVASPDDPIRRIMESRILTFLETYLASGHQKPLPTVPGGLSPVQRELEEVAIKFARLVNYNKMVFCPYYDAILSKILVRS
Sequence of UniProt Q9Y265 (Q9Y265 whole entry): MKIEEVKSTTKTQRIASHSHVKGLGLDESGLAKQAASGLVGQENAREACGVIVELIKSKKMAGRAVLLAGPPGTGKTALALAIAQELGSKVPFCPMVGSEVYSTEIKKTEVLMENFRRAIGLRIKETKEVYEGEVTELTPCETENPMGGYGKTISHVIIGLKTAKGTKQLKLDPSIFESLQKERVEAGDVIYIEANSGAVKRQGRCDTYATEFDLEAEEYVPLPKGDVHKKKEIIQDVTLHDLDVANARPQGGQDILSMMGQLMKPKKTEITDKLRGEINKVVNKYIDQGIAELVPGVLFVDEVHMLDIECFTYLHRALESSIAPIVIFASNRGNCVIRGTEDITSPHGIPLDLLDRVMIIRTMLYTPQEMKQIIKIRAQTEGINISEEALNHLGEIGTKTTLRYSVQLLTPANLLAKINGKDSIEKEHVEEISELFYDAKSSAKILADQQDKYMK
Sequence of UniProt Q9H6U6 (Q9H6U6 whole entry): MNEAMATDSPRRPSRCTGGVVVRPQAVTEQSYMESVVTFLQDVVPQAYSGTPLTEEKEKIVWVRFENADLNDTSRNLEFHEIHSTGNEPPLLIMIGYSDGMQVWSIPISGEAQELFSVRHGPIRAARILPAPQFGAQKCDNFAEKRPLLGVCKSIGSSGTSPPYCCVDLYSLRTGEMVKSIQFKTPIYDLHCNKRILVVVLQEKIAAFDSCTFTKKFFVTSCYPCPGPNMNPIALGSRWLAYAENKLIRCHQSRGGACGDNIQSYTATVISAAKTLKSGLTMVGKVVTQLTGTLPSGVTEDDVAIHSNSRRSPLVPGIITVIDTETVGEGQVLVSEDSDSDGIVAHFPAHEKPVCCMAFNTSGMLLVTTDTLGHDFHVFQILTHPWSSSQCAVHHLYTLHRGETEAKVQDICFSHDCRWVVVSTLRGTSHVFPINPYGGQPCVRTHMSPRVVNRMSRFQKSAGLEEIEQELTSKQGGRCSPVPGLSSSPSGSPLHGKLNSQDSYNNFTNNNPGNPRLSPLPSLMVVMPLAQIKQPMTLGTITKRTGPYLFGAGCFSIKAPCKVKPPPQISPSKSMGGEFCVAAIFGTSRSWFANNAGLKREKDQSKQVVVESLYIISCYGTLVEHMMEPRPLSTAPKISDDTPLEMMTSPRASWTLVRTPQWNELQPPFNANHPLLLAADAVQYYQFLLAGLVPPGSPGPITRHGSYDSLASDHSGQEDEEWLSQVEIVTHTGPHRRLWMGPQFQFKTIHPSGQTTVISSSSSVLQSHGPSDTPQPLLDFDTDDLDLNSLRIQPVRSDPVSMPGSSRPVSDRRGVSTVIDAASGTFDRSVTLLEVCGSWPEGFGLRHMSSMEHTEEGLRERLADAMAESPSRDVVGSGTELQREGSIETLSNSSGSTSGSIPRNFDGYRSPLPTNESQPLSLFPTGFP
Sequence of UniProt Q7L2H7 (Q7L2H7 whole entry): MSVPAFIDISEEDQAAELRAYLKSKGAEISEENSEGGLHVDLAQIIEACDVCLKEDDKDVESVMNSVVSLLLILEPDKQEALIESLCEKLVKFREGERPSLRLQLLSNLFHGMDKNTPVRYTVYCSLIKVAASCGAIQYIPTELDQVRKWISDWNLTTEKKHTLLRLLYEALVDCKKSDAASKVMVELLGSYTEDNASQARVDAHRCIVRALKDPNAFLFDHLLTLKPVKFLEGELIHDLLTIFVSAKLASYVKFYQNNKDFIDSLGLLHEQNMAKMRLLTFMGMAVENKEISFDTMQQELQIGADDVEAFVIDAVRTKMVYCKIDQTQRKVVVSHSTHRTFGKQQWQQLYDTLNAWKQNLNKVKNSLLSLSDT
Sequence of UniProt O14975 (O14975 whole entry, looked up): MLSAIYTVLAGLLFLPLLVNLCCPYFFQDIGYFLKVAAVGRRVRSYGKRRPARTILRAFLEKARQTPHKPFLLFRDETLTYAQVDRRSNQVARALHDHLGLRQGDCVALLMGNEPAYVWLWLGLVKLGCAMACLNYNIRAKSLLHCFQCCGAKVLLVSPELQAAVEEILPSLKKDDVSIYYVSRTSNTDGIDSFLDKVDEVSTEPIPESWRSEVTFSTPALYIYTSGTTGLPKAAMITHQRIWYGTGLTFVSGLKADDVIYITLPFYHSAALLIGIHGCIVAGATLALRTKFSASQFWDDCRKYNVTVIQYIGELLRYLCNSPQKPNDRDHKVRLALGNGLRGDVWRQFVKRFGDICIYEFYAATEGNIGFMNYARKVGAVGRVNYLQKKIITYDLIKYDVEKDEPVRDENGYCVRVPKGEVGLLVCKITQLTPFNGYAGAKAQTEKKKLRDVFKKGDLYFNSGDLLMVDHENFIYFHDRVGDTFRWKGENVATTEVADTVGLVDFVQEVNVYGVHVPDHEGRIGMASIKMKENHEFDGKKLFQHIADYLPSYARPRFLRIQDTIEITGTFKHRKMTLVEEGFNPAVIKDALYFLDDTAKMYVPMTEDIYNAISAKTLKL
Sequence of UniProt Q9Y224 (Q9Y224 whole entry): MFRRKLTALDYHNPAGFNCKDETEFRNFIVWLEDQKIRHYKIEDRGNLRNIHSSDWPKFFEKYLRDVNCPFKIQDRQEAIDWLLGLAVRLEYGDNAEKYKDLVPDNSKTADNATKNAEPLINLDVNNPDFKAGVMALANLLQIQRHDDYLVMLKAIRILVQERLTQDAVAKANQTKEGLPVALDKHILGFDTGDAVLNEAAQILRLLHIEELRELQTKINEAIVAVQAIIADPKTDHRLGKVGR
Sequence of UniProt Q8N1B4 (Q8N1B4 whole entry): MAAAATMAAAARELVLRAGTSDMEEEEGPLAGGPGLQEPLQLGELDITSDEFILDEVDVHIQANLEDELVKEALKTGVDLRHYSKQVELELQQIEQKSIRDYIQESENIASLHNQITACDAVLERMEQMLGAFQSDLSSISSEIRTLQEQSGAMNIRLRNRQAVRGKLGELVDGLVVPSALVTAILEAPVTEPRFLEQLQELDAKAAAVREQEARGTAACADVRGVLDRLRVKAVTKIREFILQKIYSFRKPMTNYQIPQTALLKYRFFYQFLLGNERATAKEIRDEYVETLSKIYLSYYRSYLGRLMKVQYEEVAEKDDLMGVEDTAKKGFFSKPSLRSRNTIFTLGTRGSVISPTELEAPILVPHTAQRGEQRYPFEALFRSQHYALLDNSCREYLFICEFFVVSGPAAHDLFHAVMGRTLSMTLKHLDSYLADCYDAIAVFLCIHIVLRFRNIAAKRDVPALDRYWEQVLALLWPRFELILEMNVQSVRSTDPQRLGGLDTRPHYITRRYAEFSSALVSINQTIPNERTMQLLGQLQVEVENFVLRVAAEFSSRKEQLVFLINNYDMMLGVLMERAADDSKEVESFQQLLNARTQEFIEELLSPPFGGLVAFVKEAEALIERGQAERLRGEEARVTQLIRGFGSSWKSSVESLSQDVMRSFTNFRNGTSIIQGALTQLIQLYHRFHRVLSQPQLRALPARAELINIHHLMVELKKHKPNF
Sequence of UniProt Q8WTS6 (Q8WTS6 whole entry): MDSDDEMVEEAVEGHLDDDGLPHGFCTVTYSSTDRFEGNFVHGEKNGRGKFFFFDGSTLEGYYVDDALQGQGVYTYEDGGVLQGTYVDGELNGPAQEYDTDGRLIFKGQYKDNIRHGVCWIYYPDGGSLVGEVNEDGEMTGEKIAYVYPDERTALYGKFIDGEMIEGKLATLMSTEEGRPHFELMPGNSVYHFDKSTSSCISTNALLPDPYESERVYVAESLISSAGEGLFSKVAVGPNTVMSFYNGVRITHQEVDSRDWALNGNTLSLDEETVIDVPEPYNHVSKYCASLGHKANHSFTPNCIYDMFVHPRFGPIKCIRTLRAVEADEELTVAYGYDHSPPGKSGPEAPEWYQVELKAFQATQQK
Sequence of UniProt Q8WYN0 (Q8WYN0 whole entry): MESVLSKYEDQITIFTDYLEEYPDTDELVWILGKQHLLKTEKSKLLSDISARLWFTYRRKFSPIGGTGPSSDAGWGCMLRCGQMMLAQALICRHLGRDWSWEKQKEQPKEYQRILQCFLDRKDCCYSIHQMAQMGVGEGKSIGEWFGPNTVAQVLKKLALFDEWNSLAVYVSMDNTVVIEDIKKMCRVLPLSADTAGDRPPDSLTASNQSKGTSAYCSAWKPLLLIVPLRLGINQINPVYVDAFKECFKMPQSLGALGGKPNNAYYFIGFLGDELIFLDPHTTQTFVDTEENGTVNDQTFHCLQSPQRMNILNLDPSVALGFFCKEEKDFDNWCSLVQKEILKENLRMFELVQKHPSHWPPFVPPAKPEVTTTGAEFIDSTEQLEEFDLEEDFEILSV

Row | Target | thermal stability z-score (potassium arsenate) | thermal stability z-score (lipoamide; [1]) | thermal stability z-score (lipoamide; arsenate co-treatment: none)
1 | FKBP7 (UniProt Q9Y680) | -0.253 | -4.17 | -4.05
2 | MYPN (UniProt Q86TC9) | 0.803 | 0.126 | 0.447
3 | LIG3 (UniProt P49916) | -1.05 | -0.0256 | 0.0387
4 | ARL6 (UniProt Q9H0F7) | 0.202 | 0.197 | 0.233
5 | EIF3M (UniProt Q7L2H7) | 0.304 | 0.136 | -0.372
6 | REEP3 (UniProt Q6NUK4) | -0.0274 | 0.197 | -0.171
7 | SLC27A2 (UniProt O14975) | 0.45 | -0.257 | -0.484
8 | GATAD2A (UniProt Q86YP4) | -0.412 | -0.0451 | -0.00448
9 | TGFB1 (UniProt P01137) | -0.306 | -2.9 | -3.34
10 | UBE3A (UniProt Q05086) | 0.3 | 0.245 | -0.149
11 | SDAD1 (UniProt Q9NVU7) | -0.469 | 0.0663 | -0.0856
12 | DSTYK (UniProt Q6XUX3) | -0.117 | 0.0406 | -0.378
13 | PLEKHA2 (UniProt Q9HB19) | -0.321 | -0.216 | -0.168
14 | ARSA (UniProt P15289) | -0.0376 | 0.254 | 0.195
15 | RIPK2 (UniProt O43353) | -0.644 | -0.255 | 0.45
16 | COX6C (UniProt P09669) | 0.836 | 0.703 | 0.431
17 | PGRMC1 (UniProt O00264) | 0.982 | 0.421 | 0.452
18 | PROSC (UniProt O94903) | -1.14 | -0.595 | 0.453
19 | RPS18 (UniProt P62269) | -0.81 | 0.389 | 0.214
20 | RSU1 (UniProt Q15404) | -1.38 | -0.465 | -0.369
21 | VWA5A (UniProt O00534) | -0.235 | -0.245 | 0.147
22 | VPS52 (UniProt Q8N1B4) | -0.0774 | -0.424 | -0.105
23 | PUS1 (UniProt Q9Y606) | 0.257 | -0.761 | -0.18
24 | RUVBL1 (UniProt Q9Y265) | -0.662 | -0.0828 | 0.115

Row | Target | thermal stability z-score (potassium arsenate) | thermal stability z-score (lipoamide; [1]) | thermal stability z-score (lipoamide; arsenate co-treatment: none)
25 | BCAS3 (UniProt Q9H6U6) | -0.0972 | -0.0897 | 0.561
26 | GPD2 (UniProt P43304) | -0.0843 | 0.223 | 0.223
27 | ALDOC (UniProt P09972) | -0.67 | -0.284 | -0.526
28 | HLA | -0.138 | -0.65 | -0.217
29 | SETD7 (UniProt Q8WTS6) | -0.402 | -0.766 | 0.0448
30 | ALDH1B1 (UniProt P30837) | -1.44 | 1.12 | 0.881
31 | USP24 (UniProt Q9UPU5) | -0.117 | -0.197 | -0.413
32 | SFXN1 (UniProt Q9H9B4) | 0.0559 | 0.607 | 0.214
33 | FECH (UniProt P22830) | -0.203 | 0.24 | 0.0849
34 | NDOR1 (UniProt Q9UHB4) | 1.08 | 0.000709 | 0.487
35 | PCNP (UniProt Q8WW12) | 0.289 | 0.549 | 0.442
36 | ARCN1 (UniProt P48444) | 0.383 | 0.128 | -0.0303
37 | SCARB1 (UniProt Q8WTV0) | 0.58 | 0.0511 | 0.144
38 | GPATCH2 (UniProt Q9NW75) | 0.239 | -0.115 | 0.00549
39 | PRKACA (UniProt P17612) | 0.535 | 0.104 | 0.151
40 | SAR1B (UniProt Q9Y6B6) | 0.0901 | 0.0537 | 0.376
41 | C2CD2 (UniProt Q9Y426) | 0.234 | -0.506 | 0.109
42 | PPP1R14B (UniProt Q96C90) | -0.284 | 0.068 | 0.535
43 | TPBG (UniProt Q13641) | -0.766 | -0.727 | -0.884
44 | ACOT9 (UniProt Q9Y305) | -0.344 | 0.00609 | 0.283
45 | USP22 (UniProt Q9UPT9) | 0.237 | -0.374 | 0.131
46 | ATG4A (UniProt Q8WYN0) | -0.744 | 0.167 | 0.0706
47 | ECE1 (UniProt P42892) | -0.191 | -0.298 | -0.225
48 | RABEP2 (UniProt Q9H5N1) | 1.26 | 0.129 | 0.15

Row | Target | thermal stability z-score (potassium arsenate) | thermal stability z-score (lipoamide; [1]) | thermal stability z-score (lipoamide; arsenate co-treatment: none)
49 | XPO1 (UniProt O14980) | 1.4 | 0.211 | 0.4
50 | KMT2D (UniProt O14686) | -0.661 | -0.298 | -0.455
51 | ETHE1 (UniProt O95571) | 0.0234 | 0.217 | -0.107
52 | TCP11L1 (UniProt Q9NUJ3) | 0.586 | -0.328 | 0.00441
53 | VPS26A (UniProt O75436) | 0.335 | 0.178 | -0.395
54 | SNRNP200 (UniProt O75643) | -0.662 | -0.116 | -0.285
55 | NONO (UniProt Q15233) | -0.137 | 1.05 | 0.927
56 | IVD (UniProt P26440) | 0.902 | 0.0798 | -0.0801
57 | PAFAH1B1 (UniProt P43034) | -0.241 | 0.258 | -0.161
58 | TTC38 (UniProt Q5R3I4) | 1.01 | 1.43 | 1.43
59 | DOHH (UniProt Q9BU89) | 0.721 | -0.0847 | 0.18
60 | FDX1 (UniProt P10109) | -0.0279 | -0.234 | -0.162
61 | DHTKD1 (UniProt Q96HY7) | -0.558 | -0.237 | 0.0606
62 | EMC2 (UniProt Q15006) | 0.472 | -0.278 | -0.164
63 | PRRC2C (UniProt Q9Y520) | 0.0846 | 0.242 | 0.174
64 | RAB35 (UniProt Q15286) | -0.435 | -0.564 | 0.0595
65 | USO1 (UniProt O60763) | 0.146 | 0.293 | 0.095
66 | MTIF3 (UniProt Q9H2K0) | 0.55 | 0.621 | 0.197
67 | RANGAP1 (UniProt P46060) | 1.77 | 0.0948 | 0.327
68 | PPIF (UniProt P30405) | 0.0382 | 0.26 | 0.29
69 | MYO5A (UniProt Q9Y4I1) | 0.118 | 0.351 | 0.43
70 | KIAA2013 (UniProt Q8IYS2) | -1.04 | 1.03 | 1.5
71 | C14ORF166 (UniProt Q9Y224) | -0.994 | 0.126 | 0.251
